Measured values published in the Kinase Knowledgebase extract (Sharma et al. 2016).

Columns and labels:
[1] = test system: EGFR (Human), P00533 [T790M/L858R]; details: nci-h1975
[2] = test system: EGFR (Human), P00533 [Assessment of Proliferation in EGFR DelE746_A750 Mutant Expressing HCC827 Cells]
EGFR (Human), P00533 [Assessment of Proliferation in EGFR DelE746_A750 Mutant Expressing HCC827 Cells], sequence (P00533 whole entry, looked up, stated change not applied): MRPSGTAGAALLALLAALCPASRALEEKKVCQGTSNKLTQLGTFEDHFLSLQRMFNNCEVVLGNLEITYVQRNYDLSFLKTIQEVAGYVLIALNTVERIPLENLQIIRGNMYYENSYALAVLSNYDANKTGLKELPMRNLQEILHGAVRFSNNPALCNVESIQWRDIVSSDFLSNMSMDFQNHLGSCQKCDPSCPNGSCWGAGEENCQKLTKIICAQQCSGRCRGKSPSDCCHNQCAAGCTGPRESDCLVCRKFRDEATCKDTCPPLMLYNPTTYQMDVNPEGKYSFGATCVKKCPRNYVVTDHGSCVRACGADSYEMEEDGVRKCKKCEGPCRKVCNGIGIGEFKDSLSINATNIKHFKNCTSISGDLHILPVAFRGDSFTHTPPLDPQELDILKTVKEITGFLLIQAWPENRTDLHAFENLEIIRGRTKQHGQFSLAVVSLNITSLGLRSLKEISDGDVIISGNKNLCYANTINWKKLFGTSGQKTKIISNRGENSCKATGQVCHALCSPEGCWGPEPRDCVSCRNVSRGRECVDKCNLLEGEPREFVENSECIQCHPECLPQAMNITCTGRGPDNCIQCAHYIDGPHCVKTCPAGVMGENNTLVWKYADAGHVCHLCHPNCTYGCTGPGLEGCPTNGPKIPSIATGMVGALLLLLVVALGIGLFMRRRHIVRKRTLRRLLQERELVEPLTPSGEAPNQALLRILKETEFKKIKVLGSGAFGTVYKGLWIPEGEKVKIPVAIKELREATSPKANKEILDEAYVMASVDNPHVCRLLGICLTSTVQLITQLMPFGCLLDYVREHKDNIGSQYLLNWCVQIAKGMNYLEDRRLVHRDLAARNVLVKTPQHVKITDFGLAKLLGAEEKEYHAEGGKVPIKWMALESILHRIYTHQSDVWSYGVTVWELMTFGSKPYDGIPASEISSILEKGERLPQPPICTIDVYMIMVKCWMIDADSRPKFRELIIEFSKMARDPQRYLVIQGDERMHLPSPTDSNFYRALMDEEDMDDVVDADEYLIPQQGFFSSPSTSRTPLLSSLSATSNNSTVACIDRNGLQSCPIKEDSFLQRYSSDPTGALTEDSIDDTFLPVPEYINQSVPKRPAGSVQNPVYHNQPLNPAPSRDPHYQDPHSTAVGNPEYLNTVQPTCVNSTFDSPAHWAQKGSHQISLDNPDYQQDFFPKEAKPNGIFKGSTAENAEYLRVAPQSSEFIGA

EGFR (Human), P00533 [T790M/L858R], sequence (P00533 whole entry T790M/L858R, looked up): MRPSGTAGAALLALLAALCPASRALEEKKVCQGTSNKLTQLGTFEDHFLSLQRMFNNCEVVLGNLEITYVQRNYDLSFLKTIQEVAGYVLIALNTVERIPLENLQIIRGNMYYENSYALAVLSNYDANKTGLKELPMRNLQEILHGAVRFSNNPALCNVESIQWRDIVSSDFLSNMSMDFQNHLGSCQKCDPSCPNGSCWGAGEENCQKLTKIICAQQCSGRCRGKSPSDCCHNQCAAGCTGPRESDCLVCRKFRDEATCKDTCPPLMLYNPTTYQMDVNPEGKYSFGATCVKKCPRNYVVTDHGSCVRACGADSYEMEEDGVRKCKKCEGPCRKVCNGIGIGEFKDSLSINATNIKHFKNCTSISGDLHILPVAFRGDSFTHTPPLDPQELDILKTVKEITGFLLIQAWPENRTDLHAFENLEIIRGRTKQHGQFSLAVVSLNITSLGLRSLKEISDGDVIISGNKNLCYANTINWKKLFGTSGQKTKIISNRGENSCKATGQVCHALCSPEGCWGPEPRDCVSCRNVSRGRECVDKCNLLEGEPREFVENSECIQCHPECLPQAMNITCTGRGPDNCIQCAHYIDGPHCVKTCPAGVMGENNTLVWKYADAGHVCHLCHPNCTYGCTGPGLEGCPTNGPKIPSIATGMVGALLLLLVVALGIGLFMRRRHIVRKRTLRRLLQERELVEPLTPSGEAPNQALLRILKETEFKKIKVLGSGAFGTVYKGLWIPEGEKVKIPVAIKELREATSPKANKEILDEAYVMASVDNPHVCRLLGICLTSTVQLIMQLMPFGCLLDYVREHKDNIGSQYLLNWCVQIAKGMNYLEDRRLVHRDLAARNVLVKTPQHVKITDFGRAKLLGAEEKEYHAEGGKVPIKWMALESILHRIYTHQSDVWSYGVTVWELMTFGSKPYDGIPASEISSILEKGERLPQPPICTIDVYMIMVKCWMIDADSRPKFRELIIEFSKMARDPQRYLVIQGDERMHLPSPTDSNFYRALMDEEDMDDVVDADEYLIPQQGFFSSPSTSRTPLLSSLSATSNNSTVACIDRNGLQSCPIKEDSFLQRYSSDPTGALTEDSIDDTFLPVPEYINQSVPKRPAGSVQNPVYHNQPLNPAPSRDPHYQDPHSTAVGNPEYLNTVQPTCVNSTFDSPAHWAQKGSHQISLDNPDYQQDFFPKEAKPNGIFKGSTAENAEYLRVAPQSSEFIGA

Structure (SMILES) | GI50 [1] | GI50 [2]
C=CC(=O)Nc1cccc(Oc2nc(Nc3ccc(C(=O)N4CCN(CC)CC4)c(Cl)c3)nc3ccsc23)c1 | ≤ 50 nM | ≤ 50 nM
C=CC(=O)Nc1cccc(Oc2nc(Nc3ccc(N4CCN(CCOC)CC4)cc3)nc3ccsc23)c1 | ≤ 50 nM | ≤ 50 nM
C=CC(=O)Nc1cccc(Oc2nc(Nc3ccc(C=CCN4CCCCC4)cc3)nc3ccsc23)c1 | 50 to 100 nM | ≤ 50 nM
C=CC(=O)Nc1cccc(Nc2nc(Nc3ccc(N4CCN(C(C)C)CC4)cc3)nc3ccsc23)c1 | ≤ 50 nM | ≤ 50 nM
C=CC(=O)Nc1cccc(Oc2nc(Nc3ccc(C4CCN(C)CC4)c(F)c3)nc3ccoc23)c1 | ≤ 50 nM | ≤ 50 nM
C=CC(=O)Nc1cccc(Oc2nc(Nc3ccc(N4CCN(S(=O)(=O)CC)CC4)cc3)nc3ccsc23)c1 | 50 to 100 nM | ≤ 50 nM
C=CC(=O)Nc1cccc(Oc2nc(Nc3ccc(C(=O)NCCN(C)C)cc3)nc3ccsc23)c1 | 100 to 1000 nM | ≤ 50 nM
C=CC(=O)Nc1cccc(Oc2nc(Nc3ccc(NC4CCN(C(C)C)CC4)c(F)c3)nc3ccsc23)c1 | ≤ 50 nM | ≤ 50 nM
C=CC(=O)Nc1cccc(Nc2nc(Nc3ccc(CN(C)C)cc3)nc3ccsc23)c1 | ≤ 50 nM | ≤ 50 nM
C=CC(=O)Nc1cccc(Nc2nc(Nc3ccc(N4CCN(C)CC4)c(F)c3)nc3ccsc23)c1 | ≤ 50 nM | ≤ 50 nM
C=CC(=O)Nc1cccc(Oc2nc(Nc3ccc(N4CC[C@@H](n5ccnc5)C4)cc3)nc3ccsc23)c1 | ≤ 50 nM | 50 to 100 nM
C=CC(=O)Nc1cccc(Oc2nc(Nc3ccc(OCCN(C)C)cc3)nc3ccsc23)c1 | ≤ 50 nM | ≤ 50 nM
C=CC(=O)Nc1cccc(Oc2nc(Nc3ccc(NC(=O)CCN4CCCC4)cc3)nc3ccsc23)c1 | ≤ 50 nM | ≤ 50 nM
C=CC(=O)Nc1cccc(Oc2nc(Nc3ccc(N4CCN(C(C)(C)C)CC4)cc3)nc3ccsc23)c1 | ≤ 50 nM | ≤ 50 nM
C=CC(=O)Nc1cccc(Oc2nc(Nc3ccc(N4CCN(S(C)(=O)=O)CC4)cc3)nc3ccsc23)c1 | ≤ 50 nM | 50 to 100 nM
C=CC(=O)Nc1cccc(Oc2nc(Nc3ccc(N4CC5CC4CN5C)cc3)nc3ccsc23)c1 (centres undefined) | ≤ 50 nM | 50 to 100 nM
C=CC(=O)Nc1cccc(Oc2nc(Nc3ccc(C(=O)NC4CCN(C)CC4)c(OC)c3)nc3ccsc23)c1 | 50 to 100 nM | ≤ 50 nM
C=CC(=O)Nc1cccc(Oc2nc(Nc3ccc4c(c3)OCCO4)nc3ccsc23)c1 | ≤ 50 nM | 50 to 100 nM
C=CC(=O)Nc1cccc(Oc2nc(Nc3ccc(CN4CCOCC4)cc3)nc3ccsc23)c1 | ≤ 50 nM | 50 to 100 nM
C=CC(=O)Nc1cccc(Oc2nc(Nc3ccc(N4CCN(C)CC4)cc3OC)nc3ccsc23)c1 | 50 to 100 nM | 50 to 100 nM
C=CC(=O)Nc1cccc(Oc2nc(Nc3ccc(CN4CCN(C)CC4)c(F)c3)nc3ccsc23)c1 | ≤ 50 nM | ≤ 50 nM
C=CC(=O)Nc1cccc(Oc2nc(Nc3ccc(CN4CCN(C)CC4)cc3)nc3ccsc23)c1 | ≤ 50 nM | ≤ 50 nM
C=CC(=O)Nc1cccc(Oc2nc(Nc3ccc(OCCN4CCOCC4)cc3)nc3ccsc23)c1 | ≤ 50 nM | ≤ 50 nM
C=CC(=O)Nc1cccc(Oc2nc(Nc3ccc(C4CCCN(C)C4)cc3OC)nc3ccsc23)c1 (centres undefined) | ≤ 50 nM | ≤ 50 nM
C=CC(=O)Nc1cccc(Oc2nc(Nc3ccc(N4CCC(N5CCOCC5)CC4)c(Cl)c3)nc3ccsc23)c1 | ≤ 50 nM | ≤ 50 nM
C=CC(=O)Nc1cccc(Oc2nc(Nc3ccc(CN4CCN(C5CCN(C)CC5)CC4)cc3)nc3ccsc23)c1 | ≤ 50 nM | ≤ 50 nM

Structure (SMILES) | GI50 [1] | GI50 [2]
C=CC(=O)Nc1cccc(Oc2nc(Nc3ccc(C(C)N4CCN(CC)CC4)cc3)nc3ccsc23)c1 (centres undefined) | ≤ 50 nM | ≤ 50 nM
C=CC(=O)Nc1cccc(Oc2nc(Nc3ccc(C(=O)N4CCN(S(=O)(=O)CC)CC4)c(Cl)c3)nc3ccsc23)c1 | 50 to 100 nM | ≤ 50 nM
C=CC(=O)Nc1cccc(Nc2nc(Nc3ccc(CN4CCCCC4)cc3)nc3ccsc23)c1 | ≤ 50 nM | ≤ 50 nM
C=CC(=O)Nc1cccc(Oc2nc(Nc3ccc(CN4CCC(N(C)C)CC4)cc3)nc3ccsc23)c1 | ≤ 50 nM | ≤ 50 nM
C=CC(=O)Nc1cccc(Oc2nc(Nc3ccc(CN4CCCCC4)cc3)nc3ccsc23)c1 | ≤ 50 nM | ≤ 50 nM
C=CC(=O)Nc1cccc(Oc2nc(Nc3ccc(CN4CCN(C5CCN(C)CC5)CC4)c(Cl)c3)nc3ccsc23)c1 | ≤ 50 nM | 50 to 100 nM
C=CC(=O)Nc1cccc(Oc2nc(Nc3ccc(OCCN(C)C)c(F)c3)nc3ccsc23)c1 | ≤ 50 nM | ≤ 50 nM
C=CC(=O)Nc1cccc(Oc2nc(Nc3ccc(CN4CCC(N(C)C)CC4)c(F)c3)nc3ccsc23)c1 | 50 to 100 nM | ≤ 50 nM
C=CC(=O)Nc1cccc(Oc2nc(Nc3ccc(N4CCC(N5CCCC5)CC4)cc3)nc3ccsc23)c1 | ≤ 50 nM | ≤ 50 nM
C=CC(=O)Nc1cccc(Oc2nc(Nc3ccc(CCO)cc3)nc3ccsc23)c1 | ≤ 50 nM | ≤ 50 nM
C=CC(=O)Nc1cccc(Oc2nc(Nc3ccc(N4CCS(=O)(=O)CC4)cc3)nc3ccsc23)c1 | ≤ 50 nM | ≤ 50 nM
C=CC(=O)Nc1cccc(Oc2nc(Nc3ccc(N4CCN(S(C)(=O)=O)CC4)c(F)c3)nc3ccsc23)c1 | ≤ 50 nM | ≤ 50 nM
C=CC(=O)Nc1cccc(Oc2nc(Nc3ccc(N4CCN(S(=O)(=O)N(C)C)CC4)cc3)nc3ccsc23)c1 | 50 to 100 nM | 50 to 100 nM
C=CC(=O)Nc1cccc(Oc2nc(Nc3ccc(N4CCN(C)CC4)c(F)c3)nc3ccsc23)c1 | ≤ 50 nM | ≤ 50 nM
C=CC(=O)Nc1cccc(Nc2nc(Nc3ccc(CCN(C)C)cc3)nc3ccsc23)c1 | ≤ 50 nM | 50 to 100 nM
C=CC(=O)Nc1cccc(Oc2nc(Nc3ccc(NC4CCN(C)CC4)c(F)c3)nc3ccoc23)c1 | ≤ 50 nM | ≤ 50 nM
C=CC(=O)Nc1cccc(Oc2nc(Nc3ccc4c(c3)CCN4C(=O)CN(C)C)nc3ccsc23)c1 | ≤ 50 nM | ≤ 50 nM
C=CC(=O)Nc1cccc(Oc2nc(Nc3ccc(CN(C)C)cc3C)nc3ccsc23)c1 | ≤ 50 nM | ≤ 50 nM
C=CC(=O)Nc1cccc(Oc2nc(Nc3ccc(N4CCN(C(=O)CN(C)C)CC4)c(F)c3)nc3ccsc23)c1 | ≤ 50 nM | ≤ 50 nM
C=CC(=O)Nc1cccc(Oc2nc(Nc3ccc(OCCN4CCOCC4)c(F)c3)nc3ccsc23)c1 | ≤ 50 nM | 50 to 100 nM
C=CC(=O)Nc1cccc(Oc2nc(Nc3ccc(OCCOC)c(F)c3)nc3ccsc23)c1 | ≤ 50 nM | 50 to 100 nM
C=CC(=O)Nc1cccc(Oc2nc(Nc3ccc(N4CCN(CCO)CC4)cc3)nc3ccsc23)c1 | ≤ 50 nM | ≤ 50 nM
C=CC(=O)Nc1cccc(Oc2nc(Nc3ccc(N4CCN(C)CC4)c(Cl)c3)nc3ccsc23)c1 | ≤ 50 nM | ≤ 50 nM
C=CC(=O)Nc1cccc(Oc2nc(Nc3ccc(N4CCOCC4)c(F)c3)nc3ccsc23)c1 | ≤ 50 nM | ≤ 50 nM
C=CC(=O)Nc1cccc(Oc2nc(Nc3ccc(N4CCN(C5CCN(C)CC5)CC4)nc3)nc3ccsc23)c1 | ≤ 50 nM | ≤ 50 nM
C=CC(=O)Nc1cccc(Oc2nc(Nc3ccc(S(C)(=O)=O)cc3)nc3ccsc23)c1 | ≤ 50 nM | 50 to 100 nM
